The source of these data is ChEMBL document CHEMBL1138068 (J Med Chem, 2006).

In experiment [1] the target is Neuronal acetylcholine receptor subunit alpha-7 (Rattus norvegicus, UniProt Q05941). Put plainly: Displacement of [125I]alpha-BTX from alpha-7 nAChR in rat hippocampus membrane. The class given is cell membranes. For orientation: Displacement assays read how much labelled ligand stays bound in the presence of the test substance.
In experiment [2] the target is Cytochrome P450 2D6 (Homo sapiens, UniProt P10635). Put plainly: Inhibition of CYP2D6. It counts as ADME.
Chain of Cytochrome P450 2D6 (P10635 whole entry): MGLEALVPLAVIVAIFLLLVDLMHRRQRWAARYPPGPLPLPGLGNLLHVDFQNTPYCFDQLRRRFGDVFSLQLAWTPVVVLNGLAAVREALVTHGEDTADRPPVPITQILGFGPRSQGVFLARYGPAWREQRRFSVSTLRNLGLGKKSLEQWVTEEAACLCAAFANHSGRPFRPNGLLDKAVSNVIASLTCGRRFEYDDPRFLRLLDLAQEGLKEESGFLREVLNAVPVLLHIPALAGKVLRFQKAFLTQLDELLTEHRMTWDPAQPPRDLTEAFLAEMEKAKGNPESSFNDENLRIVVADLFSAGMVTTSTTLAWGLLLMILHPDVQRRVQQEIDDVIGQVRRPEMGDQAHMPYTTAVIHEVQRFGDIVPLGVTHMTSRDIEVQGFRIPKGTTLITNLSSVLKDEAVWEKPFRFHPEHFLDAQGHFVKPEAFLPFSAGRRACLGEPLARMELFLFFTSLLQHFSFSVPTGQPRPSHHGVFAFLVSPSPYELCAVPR
The target of experiment [3] is Neuronal acetylcholine receptor subunit alpha-7 (Homo sapiens) (UniProt P36544). Put plainly: Activity at alpha-7 nAChR assessed as stimulation of relative inward current in cultured hippocampal neurons relative to choline. The conditions noted are these: Hippocampus, filed as agonist. It counts as functional, tissue-based.
Chain of Neuronal acetylcholine receptor subunit alpha-7 (Homo sapiens) (P36544 whole entry): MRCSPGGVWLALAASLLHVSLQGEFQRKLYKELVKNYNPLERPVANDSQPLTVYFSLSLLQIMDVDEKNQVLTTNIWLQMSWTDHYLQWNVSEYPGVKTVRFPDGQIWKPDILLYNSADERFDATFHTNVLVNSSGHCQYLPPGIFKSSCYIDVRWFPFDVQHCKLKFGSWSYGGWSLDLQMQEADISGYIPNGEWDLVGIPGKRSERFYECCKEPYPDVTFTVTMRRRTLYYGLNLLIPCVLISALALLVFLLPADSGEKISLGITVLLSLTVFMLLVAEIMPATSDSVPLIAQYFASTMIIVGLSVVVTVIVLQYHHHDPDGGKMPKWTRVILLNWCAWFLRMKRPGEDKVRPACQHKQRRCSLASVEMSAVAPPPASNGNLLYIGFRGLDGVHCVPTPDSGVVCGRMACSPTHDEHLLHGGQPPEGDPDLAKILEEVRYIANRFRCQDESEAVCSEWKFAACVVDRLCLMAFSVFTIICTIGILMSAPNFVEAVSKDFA

Chain of Neuronal acetylcholine receptor subunit alpha-7 (Q05941 whole entry): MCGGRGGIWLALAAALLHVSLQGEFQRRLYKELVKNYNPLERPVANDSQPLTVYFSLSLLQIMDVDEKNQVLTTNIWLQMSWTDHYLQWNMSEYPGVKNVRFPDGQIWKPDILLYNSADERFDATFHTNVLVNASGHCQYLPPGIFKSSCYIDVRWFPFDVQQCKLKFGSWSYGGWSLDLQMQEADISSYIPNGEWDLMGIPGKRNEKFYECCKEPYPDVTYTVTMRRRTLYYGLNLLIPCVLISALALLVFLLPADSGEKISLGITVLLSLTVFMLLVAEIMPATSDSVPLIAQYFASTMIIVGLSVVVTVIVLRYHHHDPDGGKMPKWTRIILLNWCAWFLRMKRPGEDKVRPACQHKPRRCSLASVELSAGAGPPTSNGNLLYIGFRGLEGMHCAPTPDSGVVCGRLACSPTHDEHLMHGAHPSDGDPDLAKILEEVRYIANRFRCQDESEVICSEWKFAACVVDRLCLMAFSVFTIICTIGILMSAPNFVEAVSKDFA

One may read the Ki as a measure of affinity in units of concentration, obtained from inhibition or displacement. On to `CCc1c(C)oc2ccc(N3C[C@@]4(CN5CCC4CC5)OC3=O)cc12`, for which, in experiment [1], the affinity, expressed as Ki, was 15 nM. As usually defined, the IC50 is the concentration that gives 50% inhibition. A high value points to a need for much substance. In turn, `O=C1O[C@]2(CN3CCC2CC3)CN1c1ccc2sccc2c1` had an IC50 in experiment [2] of over 30000 nM. Further, in experiment [1], affinity was put at a Ki of 28 nM. On to `O=C1O[C@]2(CN3CCC2CC3)CN1c1ccc2occc2c1`, for which the IC50 in experiment [2] was over 30000 nM. The Activity entry in experiment [3] is “Agonist”. Also, in experiment [1], the Ki is 19 nM. `Cn1c(=O)sc2cc(N3CC4(CN5CCC4CC5)OC3=O)ccc21` (single isomer, unassigned) showed a half-inhibitory concentration (IC50) in experiment [1] of over 1000 nM. `O=C1O[C@]2(CN3CCC2CC3)CN1c1ccc2c(c1)CCO2` returned a Ki in experiment [1] of 85 nM. The compound `Cc1nc2cc(N3C[C@@]4(CN5CCC4CC5)OC3=O)ccc2s1` showed an inhibition constant (Ki) in experiment [1] of 60 nM.
